Assay results: US12325697B2 (Nimbus Clio, Inc., priority 2021, dated 2025)

Molecular target: Recombinant human Cbl-b (aa 36-427) (Homo sapiens (Human), UniProt Q13191)
Experiment: Cbl-b Biochemical Assay (TR-FRET)
Conditions: read-out: TR-FRET hCbl-b IC50
Method: Recombinant human Cbl-b (aa 36-427) was expressed in E. coli, purified and biotinylated in vitro. The protein was diluted to 12 nM in freshly prepared assay buffer consisting of 50 mM HEPES, pH 7.0, 100 mM NaCl, 5 mM MgCl2, 0.01% Triton-X 100, 0.01% BSA and 1 mM DTT. Recombinant human Src (aa 254-536)-[…]-Zap-70 (aa 281-297) fusion protein was expressed in E. coli and purified. Protein was diluted in assay buffer to 2-5 nM and supplemented with ATP to 1 mM. Fluorescein-BODIPY labeled UBE[…]([…])-Ub was prepared by conjugating ubiquitin (Ub) labeled at its N-terminus with Fluorescein-BODIPY maleimide (ThermoFisher Catalog no B10250) to E. coli expressed and purified UBE[…]([…]) [see Dou et al Nature Structural and Molecular Biology 8: 982-987, 2013]. Recombinant human UBE2D2([…]) was expressed in E. coli, purified and ubiquitinated and Bodipy labelled in vitro. Protein was diluted to 200 nM in assay buffer without MgCl2 (or Cisbio PPI buffer). Streptavidin-Terbium was added to 2 nM and EDTA to 10 mM, to provide a binding assay mix. Compounds were dissolved in DMSO and diluted to prepare a ten-point dilution series. 100 nl of each compound concentration was dispensed in duplicate in a 384 well black assay plate using acoustic dispensing. Wells for maximum signal controls received 100 nl of DMSO only and wells for minimum signal controls received 100 nl of a reference inhibitor compound at a final assay concentration of […] to produce 100% inhibition. 5 μl of diluted Cbl-b enzyme was added to all wells of the assay plate and incubated at RT for 30-60 min. The enzyme assay was initiated by addition of 5 μl of Src-Zap/ATP mix to all wells, and the plate incubated at RT for 60 min. The enzyme reaction was terminated and the binding reaction was initiated by adding 10 μl of binding assay mix to all wells and incubating the plate at RT for 60 min prior to assay read. Final assay conditions consisted of 6 nM Cbl-b, 1-2.5 nM Src-Zap70, 0.5 mM ATP, 1% (v/v) DMSO (enzyme reaction) and 100 nM UBE2D2([…])-Ub-FL-BODIPY, 5 mM EDTA, 1 nM Streptavidin-Tb (binding reaction). The HTRF assay signal was measured at 520 nm on an Envision plate reader, with reference signal at 485 or 620 nm. Data was normalized using maximum and minimum assay controls: % Inhibition=100-(100*((maximum control)-unknown)/(maximum control-minimum control)). A 4-parameter dose-response equation was used to fit the normalized dose-response data and derive an IC50 for test compounds.

Recombinant human Cbl-b (aa 36-427), sequence (Q13191 36-427): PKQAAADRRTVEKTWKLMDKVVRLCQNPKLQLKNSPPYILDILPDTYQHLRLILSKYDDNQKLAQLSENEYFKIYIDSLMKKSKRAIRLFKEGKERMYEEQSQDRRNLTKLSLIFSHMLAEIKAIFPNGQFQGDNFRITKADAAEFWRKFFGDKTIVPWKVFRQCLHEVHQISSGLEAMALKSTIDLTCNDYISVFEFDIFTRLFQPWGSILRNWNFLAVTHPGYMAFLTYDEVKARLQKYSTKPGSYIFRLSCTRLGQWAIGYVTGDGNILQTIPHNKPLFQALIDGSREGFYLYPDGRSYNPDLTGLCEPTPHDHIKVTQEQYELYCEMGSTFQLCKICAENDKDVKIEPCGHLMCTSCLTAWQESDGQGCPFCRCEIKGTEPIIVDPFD

Cn1cnnc1-c1cnn(C)c1-c1cc(Cl)nc(N2Cc3c(cc(CN4CCC5(CC5)C4)cc3C(F)(F)F)C2=O)c1 [ABD-1, 6-((5-Azaspiro [2.4]heptan-5-yl)methyl)-2-(6-chloro-4-(1-methyl-4-(4-methyl-4H-1,2,4-triazol-3-yl)-1H-pyrazol-5-yl)pyridin-2-yl)-4-(trifluoromethyl)isoindolin-1-one]
IC50: 200 to 1000 nM

Cn1cnnc1-c1cnn(C)c1-c1cc(O)nc(N2Cc3c(cc(CN4CCC5(CC5)C4)cc3C(F)(F)F)C2=O)c1 [ABE-1, 6-((5-Azaspiro [2.4]heptan-5-yl)methyl)-2-(6-hydroxy-4-(1-methyl-4-(4-methyl-4H-1,2,4-triazol-3-yl)-1H-pyrazol-5-yl)pyridin-2-yl)-4-(trifluoromethyl)isoindolin-1-one]
IC50: 1000 to 10000 nM

CCNc1cc(-c2c(-c3nncn3C)cnn2C)cc(NC(=O)c2cc(CN3CCC4(CC4)C3)cc(C3CC3)n2)n1 [ABF-8, 4-((5-Azaspiro [2.4]heptan-5-yl)methyl)-6-cyclopropyl-N-(6-(ethylamino)-4-(1-methyl-4-(4-methyl-4H-1,2,4-triazol-3-yl)-1H-pyrazol-5-yl)pyridin-2-yl)picolinamide]
IC50: ≤ 200 nM

Cn1cnnc1-c1cnn(C)c1-c1cc(CN)nc(N2Cc3c(cccc3C(F)(F)F)C2=O)c1 [ABG-3, 2-(6-(Aminomethyl)-4-(1-methyl-4-(4-methyl-4H-1,2,4-triazol-3-yl)-1H-pyrazol-5-yl)pyridin-2-yl)-4-(trifluoromethyl)isoindolin-1-one]
IC50: 10000 to 50000 nM

CCOc1cc(-c2c(-c3nncn3C)cnn2C)cc(N2Cc3c(cccc3C(F)(F)F)C2=O)n1 [ABH-2, 2-(6-Ethoxy-4-(1-methyl-4-(4-methyl-4H-1,2,4-triazol-3-yl)-1H-pyrazol-5-yl)pyridin-2-yl)-4-(trifluoromethyl)isoindolin-1-one]
IC50: 200 to 1000 nM

CC(C)Nc1cc(-c2c(-c3nncn3C)cnn2C)cc(N2Cc3c(cccc3C(F)(F)F)C2=O)n1 [ABI-1, 2-(6-(Isopropylamino)-4-(1-methyl-4-(4-methyl-4H-1,2,4-triazol-3-yl)-1H-pyrazol-5-yl)pyridin-2-yl)-4-(trifluoromethyl)isoindolin-1-one]
IC50: ≤ 200 nM

CCNc1cc(-c2c(-c3nncn3C)cnn2C)cc(NC(=O)c2cc(C)nc(C3CC3)n2)n1 [ABJ-4, 2-Cyclopropyl-N-(6-(ethylamino)-4-(1-methyl-4-(4-methyl-4H-1,2,4-triazol-3-yl)-1H-pyrazol-5-yl)pyridin-2-yl)-6-methylpyrimidine-4-carboxamide]
IC50: 200 to 1000 nM

Cn1cnnc1-c1ccccc1-c1cccc(NC(=O)c2cc(OCCN3CCCC3)nc(C3CC3)n2)c1 [ABK-7, 2-Cyclopropyl-N-(2′-(4-methyl-4H-1,2,4-triazol-3-yl)-[1,1′-biphenyl]-3-yl)-6-(2-(pyrrolidin-1-yl)ethoxy)pyrimidine-4-carboxamide]
IC50: 200 to 1000 nM

CCNc1cc(-c2c(-c3nncn3C)cnn2C)cc(NC(=O)c2cc(=O)n(CCN3CCCC3)c(C3CC3)n2)n1 [ABL-4, 2-Cyclopropyl-N-(6-(ethylamino)-4-(1-methyl-4-(4-methyl-4H-1,2,4-triazol-3-yl)-1H-pyrazol-5-yl)pyridin-2-yl)-6-oxo-1-(2-(pyrrolidin-1-yl)ethyl)-1,6-dihydropyrimidine-4-carboxamide]
IC50: 10000 to 50000 nM

Cn1cnnc1-c1ccccc1-c1cccc(NC(=O)c2cc(=O)n(CCN3CCCC3)c(C3CC3)n2)c1 [ABM-1, 2-Cyclopropyl-N-(2′-(4-methyl-4H-1,2,4-triazol-3-yl)-[1,1′-biphenyl]-3-yl)-6-oxo-1-(2-(pyrrolidin-1-yl)ethyl)-1,6-dihydropyrimidine-4-carboxamide]
IC50: 1000 to 10000 nM

CCNc1cc(-c2c(-c3nncn3C)cnn2C)cc(N2Cc3c(cc(CN4CC(F)C4)cc3C(F)(F)F)C2=O)n1 [ABN-2, 2-(6-(Ethylamino)-4-(1-methyl-4-(4-methyl-4H-1,2,4-triazol-3-yl)-1H-pyrazol-5-yl)pyridin-2-yl)-6-((3-fluoroazetidin-1-yl)methyl)-4-(trifluoromethyl)isoindolin-1-one]
IC50: ≤ 200 nM

CCNc1cc(-c2c(-c3nncn3C)cnn2C)cc(N2Cc3c(cc(CN4CCC(F)C4)cc3C(F)(F)F)C2=O)n1 (stereo not drawn) [ABP-3, 2-(6-(Ethylamino)-4-(1-methyl-4-(4-methyl-4H-1,2,4-triazol-3-yl)-1H-pyrazol-5-yl)pyridin-2-yl)-6-((3-fluoropyrrolidin-1-yl)methyl)-4-(trifluoromethyl)isoindolin-1-one]
IC50: ≤ 200 nM

CCNc1cc(-c2c(-c3nncn3C)cnn2C)cc(C(=O)O)n1 [ABQ-1, 6-(Ethylamino)-4-(1-methyl-4-(4-methyl-4H-1,2,4-triazol-3-yl)-1H-pyrazol-5-yl)picolinic acid]
IC50: 10000 to 50000 nM

CCNc1cc(-c2ccccc2-c2nncn2C)cc(N2Cc3c(cc(CN4CCC5(CC5)C4)cc3C(F)(F)F)C2=O)n1 [ABR-1, 6-((5-Azaspiro [2.4]heptan-5-yl)methyl)-2-(6-(ethylamino)-4-(2-(4-methyl-4H-1,2,4-triazol-3-yl)phenyl)pyridin-2-yl)-4-(trifluoromethyl)isoindolin-1-one]
IC50: ≤ 200 nM

Cn1cnnc1-c1ccccc1-c1cc(NCCO)nc(N2Cc3c(cccc3C(F)(F)F)C2=O)c1 [ABT-2, 2-(6-((2-Hydroxyethyl)amino)-4-(2-(4-methyl-4H-1,2,4-triazol-3-yl)phenyl)pyridin-2-yl)-4-(trifluoromethyl)isoindolin-1-one]
IC50: 200 to 1000 nM

CCNc1cc(-c2c(-c3nncn3C)cnn2C)cc(NC(=O)c2cc(OCCN3CCCC3)nc(C3CC3)n2)n1 [ABU-2, 2-Cyclopropyl-N-(6-(ethylamino)-4-(1-methyl-4-(4-methyl-4H-1,2,4-triazol-3-yl)-1H-pyrazol-5-yl)pyridin-2-yl)-6-(2-(pyrrolidin-1-yl)ethoxy)pyrimidine-4-carboxamide]
IC50: 200 to 1000 nM

CCNc1cc(-c2c(-c3nncn3C)cnn2C)cc(CNC(=O)OC(C)(C)C)n1 [ABV-1, tert-Butyl ((6-(ethylamino)-4-(1-methyl-4-(4-methyl-4H-1,2,4-triazol-3-yl)-1H-pyrazol-5-yl)pyridin-2-yl)methyl)carba mate]
IC50: 10000 to 50000 nM

CCNc1cc(-c2c(-c3nncn3C)cnn2C)cc(NC(=O)c2cc(C)cc(C3CC3)n2)n1 [ABW-3, 6-Cyclopropyl-N-(6-(ethylamino)-4-(1-methyl-4-(4-methyl-4H-1,2,4-triazol-3-yl)-1H-pyrazol-5-yl)pyridin-2-yl)-4-methylpicolinamide]
IC50: 200 to 1000 nM

CCNc1cc(-c2c(-c3nncn3C)cnn2C)cc(N2Cc3c(cccc3C(F)(F)F)C2=O)c1 [ABX-6, 2-[3-(Ethylamino)-5-[2-methyl-4-(4-methyl-1,2,4-triazol-3-yl)pyrazol-3-yl]phenyl]-4-(trifluoromethyl)-3H-isoindol-1-one]
IC50: ≤ 200 nM

CCNc1cc(-c2c(-c3nncn3C)cnn2C)cc(NC(=O)c2cc(CO)cc(C3CC3)n2)n1 [ABZ-7, 6-Cyclopropyl-N-(6-(ethylamino)-4-(1-methyl-4-(4-methyl-4H-1,2,4-triazol-3-yl)-1H-pyrazol-5-yl)pyridin-2-yl)-4-(hydroxymethyl) picolinamide]
IC50: ≤ 200 nM

Cn1cnnc1-c1ccccc1-c1cc(N2CCCC2)nc(N2Cc3c(cccc3C(F)(F)F)C2=O)c1 [AC-3]
IC50: 1000 to 10000 nM

CCNc1cc(-c2c(-c3nncn3C)cnn2C)cc(N2Cc3c(cc(CN4CC[C@@H](F)C4)cc3C(F)(F)F)C2=O)n1 [ACA-1, (R)-2-(6-(Ethylamino)-4-(1-methyl-4-(4-methyl-4H-1,2,4-triazol-3-yl)-1H-pyrazol-5-yl)pyridin-2-yl)-6-((3-fluoropyrrolidin-1-yl)methyl)-4-(trifluoromethyl)isoindolin-1-one]
IC50: ≤ 200 nM

CCNc1cc(-c2c(-c3nncn3C)cnn2C)cc(N2Cc3c(cc(CN4CC[C@H](F)C4)cc3C(F)(F)F)C2=O)n1 [ACB-1, (S)-2-(6-(Ethylamino)-4-(1-methyl-4-(4-methyl-4H-1,2,4-triazol-3-yl)-1H-pyrazol-5-yl)pyridin-2-yl)-6-((3-fluoropyrrolidin-1-yl)methyl)-4-(trifluoromethyl)isoindolin-1-one]
IC50: ≤ 200 nM

Cn1cnnc1-c1cc(C#N)ccc1-c1cccc(N2Cc3c(cccc3C(F)(F)F)C2=O)c1 [ACC-8, 2-(4-Methyl-4H-1,2,4-triazol-3-yl)-3′-(1-oxo-4-(trifluoromethyl)isoindolin-2-yl)-[1,1′-biphenyl]-4-carbonitrile]
IC50: ≤ 200 nM
